Reference: US11957683B2, “Bicyclic compounds” (Aligos Therapeutics, Inc., priority 2021, dated 2024)
Where two headings read alike, the source gives them in different places.

Assays:
HBV = experiment: HBV-DNA antiviral assay using HepG2.117 cells; type: cell-based, HBV genotype D; settings: HBV DNA inhibition, intracellular HBV DNA by qPCR, HepG2.117 cells, 3 days incubation, read-out: EC50
HepG2.117 cells = experiment: Cell viability by CellTiter-Glo 2.0 (intracellular ATP) in HepG2.117 cells; type: cell-based; settings: CellTiter-Glo 2.0, HepG2.117 cells, 3 days incubation
[1] = as above; type: cell-based; settings: human, CellTiter-Glo 2.0, HepG2.117 cells, 3 days incubation

| SMILES | EC50 (HBV) [nM] | CC50 (HepG2.117 cells) [nM] | EC50 (HBV; Hepatitis B virus, 72 h) [nM] | CC50 at 3 days [1] [nM] |
| --- | --- | --- | --- | --- |
| C=C[C@H](C)Nc1nc2c(c(=O)n1-c1ccc(C(=O)NC)cc1Cl)C[C@@H](C)N(C(=O)c1ccc(Br)c(C(F)(F)F)c1)C2 (atropisomer, axis not shown) [Compound 45, 4-[(6R)-7-[4-bromo-3-(trifluoromethyl)benzoyl]-6-methyl-2-[[(1S)-1-methylallyl]amino]-4-oxo-6,8-dihydro-5H-pyrido[3,4-d]pyrimidin-3-yl]-3-chloro-N-methyl-benzamide] | < 50 | 30100 | – | – |
| C=CC(C)Nc1nc2c(c(=O)n1-c1ccc(C(=O)NC)cc1)C[C@@H](C)N(C(=O)c1ccc(Br)c(C(F)(F)F)c1)C2 (single isomer, unassigned) [Compound 2b] | < 50 | > 500 | – | – |
| C=CC(C)Nc1nc2c(c(=O)n1-c1ccc(-c3[nH]nnc3C)cc1)C[C@@H](C)N(C(=O)c1ccc(Br)c(C(F)(F)F)c1)C2 (single isomer, unassigned) [Compound 3b] | < 50 | > 500 | – | – |
| C=C[C@H](C)Nc1nc2c(c(=O)n1-c1cc3ncn(C)c3cc1F)C[C@@H](C)N(C(=O)c1ccc(Br)c(C(F)(F)F)c1)C2 [Compound 32b, (R)-7-(4-bromo-3-(trifluoromethyl)benzoyl)-2-(((S)-but-3-en-2-yl)amino)-3-(6-fluoro-1-methyl-1H-benzo[d]imidazol-5-yl)-6-methyl-5,6,7,8-tetrahydropyrido[3,4-d]pyrimidin-4(3H)-one] | < 50 | 21900 | – | – |
| C#Cc1ccc(C(=O)N2Cc3nc(N[C@@H](C)C=C)n(-c4ccc(C(=O)NC)cc4)c(=O)c3C[C@H]2C)cc1C(F)(F)F [Compound 50, 4-[(6R)-7-[4-ethynyl-3-(trifluoromethyl)benzoyl]-6-methyl-2-[[(1S)-1-methylallyl]amino]-4-oxo-6,8-dihydro-5H-pyrido[3,4-d]pyrimidin-3-yl]-N-methyl-benzamide] | – | – | < 50 | > 50000 |
